Experiments:
MDA-MB 231 cells = test: Phase contrast microscopy of EMT/MET in Basal/metastatic model; format: cell-based, human; conditions: Bisindolylmaleimide 4 μM
Description: Phase contrast microscopy was utilized for EMT and wound healing assays under 10× or 20× magnification of Olympus Fluorescence 1X71 microscope. Images were captured and analyzed as described above except that wound healing assay pictures were also analyzed by Image J software (Free software in Public domain developed by NIH).
The adherent human mammary adenocarcinoma MCF-7 and MDA-MB-231 cells were cultured in low glucose DMEM (Gibco) and both supplemented with 10% FCS, 2 mM L-glutamine and 0.1% PSN antibiotics. Cells were stimulated with 0.65 ng/ml of phorbol 12-myristate 13-acetate (PMA) (Sigma-Aldrich) or 20 ng/ml of TGF-β (R&D systems) for the times indicated. For Bisindolylmaleimide-I (Calbiochem) or PKC-θ peptide inhibitor (Calbiochem) studies, cells were pre-treated with 1 μM or 30 μM of inhibitor respectively for 1 h prior to stimulation in MCF-7 cells. In case of MDA-MB-231, cells were treated with 4 μM or 30 μM Bisindolylmaleimide-I or PKC-θ peptide inhibitor respectively.
phase contrast microscopy was performed where cells were viewed at ×4 magnification (wound healing assay) or ×10 magnification (EMT) using an Olympus fluorescence IX71 microscope (Olympus) and images were captured using DPController software (2002 Olympus Optical Co. LTD) and analyzed using Photoshop CS3 (Adobe Systems Inc.). Scans were taken with a 10 μm scale bar.

[1] = system: PKC-θ chromatin association at CSC inducible gene promoters (uPAR, CD44); test: ChIP assay with anti-PKC-θ antibodies in MCF-IM model; format: cell-based, human
Description: Between 1-5×10^6 Cells were harvested following various treatments according to the experimental requirement and re-suspended in 10 mL DMEM completer media at room temperature after counting then at Vi-CELL counter. Cells were then cross linked with freshly prepared 1% paraformaldehyde (PFA) (Analytical UNIVAR, Seattle, Wash.) for 10 minutes at room temperature with continuous but slow rotations on rotary wheel. Next, the reaction was quenched by the addition of 2M glycine solution (AnalaR, Merck, Darmstadt, Germany) to a get a final concentration of 125 mM and mixed further for 10 minutes at room temperature on the rotary wheel. Cells were then washed three times with 10 mL ice cold PBS and the cell pellet was either snap frozen on dry ice or used immediately afterwards. SDS Lysis Buffer (Upstate Biotechnology, Billerica, Mass.) was prepared by addition of 1× complete protease inhibitor solution (1 tablet dissolved in 1 mL DEPC water) (Roche Diagnostics, Mannheim, Germany) and cell pellet was then re-suspended in 250 μL of the in the SDS lysis buffer for 10 minutes at room temperature. Cells were sonicated (10 sec pulses for 2 minutes on 1 liter ice cold water mixed with ice, 70% maximum output) to shear the chromatin to obtain an average DNA fragment size of 250-500 bp using a Cole Palmer Ultrasonic processor (Cole Plamer, Vernon Hills, Ill.). […]

## CN(C)CCCn1cc(C2=C(c3c[nH]c4ccccc34)C(=O)NC2=O)c2ccccc21 [bisindolylmaleimide-I]
MDA-MB 231 cells
  EMT (morphology): inhibits EMT
MDA-MB 231 cells; listed as Broad spectrum PKC pathway inhibitor
  EMT (morphology): inhibition of EMT and CSC formation
[1]; MCF-IM model, bisindolylmaleimide-I 1 μM for 1 hr, then PMA for 60 hours
  PKC-θ chromatin association across the uPAR promoter (ChIP): reduces its chromatin association across the uPAR promoter
[1]; as worded in Example 13
  binding of PKC-θ on the CD44 gene promoter (ChIP): reduction of binding of PKC-θ on the CD44 gene promoter

From patent publication US10485772B2, “Compositions for modulating cancer stem cells and uses therefor” (University of Canberra, priority 2014, dated 2019)
